{"source": "patent US20090123420A1", "about": "“Regulation of T Cell-Mediated Immunity by D Isomers of Inhibitors of Indoleamine-2,3-Dioxygenase” (Medical College of Georgia Research Institute, Inc, priority 2003, published 2009)", "key": {"[1]": {"test_system": "B16F10 melanomas", "assay": "Established B16F10 melanoma model, 1MT with radiation or cyclophosphamide", "type": "in vivo, mouse", "details": "for effect on tumor growth, 1MT alone: established tumor, treatment from day 7, SQ pellets", "experimental": "FIGS. 11A-11D. Administration of 1-MT enhances immune-mediated host anti-tumor effect when administered with radiation or cyclophosphamide. Mice were injected subcutaneously (SQ) with 4×10^4 B16F10 cells. […] Control mice received vehicle pellets without drug.\nMouse tumor models. C57BL/6 mice (Jackson, Bar Harbor, Me.) were implanted with tumors in the anteriomedial thigh, using either 4×10^4 B16F10 (ATCC, Bethesda, Md.) or 1×10^6 B78H1•GM-CSF. B78H1•GM-CSF cells recruit large numbers of APCs (Dranoff et al., Proc. Natl. Acad. Sci. USA, 1993; 90:3539) and were originally designed as a vaccine strategy. GMCSF-transfected tumors are immunogenic if lethally irradiated prior to injection (Borrello et al., Hum. Gene Ther., 1999; 10:1983), but live tumors grow progressively and create systemic tolerance to tumor antigens (Bronte et al., J. Immunol., 1999; 162:5728). Thus, B78H1•GM-CSF represented an excellent model for our studies, since it recruited many DCs but nevertheless […]. Tumors were 10-12 days after implantation, well prior to the stage of large, metastatic tumors (day 21) in which the hosts began to show alteration in spleen and non-tumor-draining LNs.\nNot unexpected, given that the tumor had already been allowed to create tolerance in the host."}, "[2]": {"assay": "Comparative plasma pharmacokinetics of the stereo-isomers of 1-MT", "type": "in vivo, mouse", "experimental": "Studies were conducted in conventional mice after IV, PO and SC doses of 50 mg/kg, and IP doses of 25 mg/kg, 50 mg/kg, and 100 mg/kg."}, "[3]": {"assay": "Pilot tissue biodistribution of D and L isomers after DL racemic mixture", "type": "in vivo, mouse", "details": "DL racemic mixture 10 mg/day SQ pellets, 72 hour infusion", "excerpt": "The results noted with spleen are particularly relevant because it is a lymphoid organ, and thus likely to be similar to tumor-draining lymph nodes."}, "[4]": {"test_system": "IDO", "assay": "Recall MLR of primed recipient LN cells with 1MT added to the MLR", "type": "cell-based, mouse", "details": "responders from recipients of TDLN DCs"}, "[5]": {"test_system": "P815 with IDO", "details": "concomitant administration; cited from earlier work"}, "[6]": {"test_system": "Lewis Lung carcinoma (LLC)", "details": "mouse, in vivo; cited from earlier work"}, "[7]": {"target": "IDO (Mus musculus, UniProt P28776)", "sequence (P28776 whole entry)": "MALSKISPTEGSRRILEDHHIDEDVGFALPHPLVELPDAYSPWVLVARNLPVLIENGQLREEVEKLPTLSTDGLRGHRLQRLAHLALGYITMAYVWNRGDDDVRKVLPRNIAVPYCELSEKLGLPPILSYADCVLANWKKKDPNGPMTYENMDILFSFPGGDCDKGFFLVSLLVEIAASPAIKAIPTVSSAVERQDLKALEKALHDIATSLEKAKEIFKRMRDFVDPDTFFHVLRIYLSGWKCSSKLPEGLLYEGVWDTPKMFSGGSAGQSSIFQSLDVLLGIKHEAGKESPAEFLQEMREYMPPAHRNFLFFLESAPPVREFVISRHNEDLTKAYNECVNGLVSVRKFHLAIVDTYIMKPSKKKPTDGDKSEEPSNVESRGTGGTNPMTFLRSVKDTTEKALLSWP", "assay": "MLR with sorted tumor-draining lymph node (TDLN) cells as stimulators and BM3 responder T cells", "details": "10x", "description": "T cell activation in MLR. BM3 responder T cells were prepared from spleen by nylon-wool enrichment. Stimulators (sorted DCs or unfractionated TDLN) were mixed with 1×10^5 BM3 responder cells in 200 ul IMDM at the ratios shown in each figure. After 3 days, proliferation was measured by 4-hour thymidine incorporation assay.\nMLRs were thus “two-way” reactions. However, the small number of sorted DCs used as stimulators contributed negligible proliferation compared to the large population of TCR-transgenic responder cells. Since the relevant readout was dominant suppression, the two-way MLR design presented no problem in interpretation.\nPooled draining LN cells (4 nodes) were stained and fractionated by 4-color MoFlo cell sorting for the two populations shown in the schematic of FIG. 5B. All other cells were collected in a third fraction. Each fraction was then used as stimulators in MLRs, using 50,000 BM3 T cells as responders. The number of stimulators used in each MLR was adjusted to be the same as would have been present in 50,000 cells of the original LN preparation, based on the measured percentage of each sorted fraction. Thus, 500 cells of the sorted B220^+ CD11c^+ fraction were added per well, and 1500 cells of the CD25^+ CD4^+ fraction, while 48,000 cells of the “all other” fraction were used."}, "[8]": {"target": "IDO (Homo sapiens, UniProt P14902)", "sequence (P14902 whole entry)": "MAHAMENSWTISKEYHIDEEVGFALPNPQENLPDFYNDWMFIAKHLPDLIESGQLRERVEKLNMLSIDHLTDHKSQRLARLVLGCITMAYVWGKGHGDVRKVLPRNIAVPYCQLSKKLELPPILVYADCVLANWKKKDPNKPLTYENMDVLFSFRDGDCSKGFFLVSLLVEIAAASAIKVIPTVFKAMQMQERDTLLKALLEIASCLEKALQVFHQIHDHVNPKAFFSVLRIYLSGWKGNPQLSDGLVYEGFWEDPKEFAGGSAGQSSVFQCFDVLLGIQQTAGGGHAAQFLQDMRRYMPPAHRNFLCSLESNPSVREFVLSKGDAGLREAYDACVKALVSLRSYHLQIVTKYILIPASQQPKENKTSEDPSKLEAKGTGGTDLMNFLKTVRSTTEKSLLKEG", "assay": "Allogeneic mixed-leukocyte reaction (MLR) with IDO-expressing human monocyte-derived DCs, T cell proliferation by thymidine incorporation", "details": "250 uM in culture medium", "description": "Replicate MLRs received each compound at the concentrations shown. Bars represent T cell proliferation at the end of the 5-day activation period.\nAfter 5 days, proliferation was measured by 4 hour thymidine incorporation assay. “V”-bottom culture wells (Nunc) were used in MLR assays to maximize cell-cell contact.\nDCs were used as stimulators in allogeneic mixed-leukocyte reactions (MLRs), with allogeneic lymphocytes as responder cells."}, "[9]": {"target": "rabbit polyclonal anti-human IDO antibody (raised against the KLH-conjugated peptide of SEQ ID NO:1, affinity purified)", "assay": "flow cytometry of IFNγ-activated monocyte-derived macrophages; anti-IDO antibody pre-adsorbed with the immunizing peptide, which competes with IDO"}}, "note": "“Also recorded” adds a separate entry of the source. No end group written: not given here.", "data": [{"molecule": "Cn1cc(CC(N)C(=O)O)c2ccccc21", "note": "(racemic) [DL racemic form of 1MT, reference compound]", "values": [{"measurement": "tumor growth, 1MT with cyclophosphamide", "setting": "[1]; 20 mg per mouse per day DL racemic, cyclophosphamide 150 mg/kg x 1 dose", "value": "significantly reduce tumor growth"}, {"measurement": "tumor growth, 1MT with radiation", "setting": "[1]; 20 mg per mouse per day DL racemic, total-body radiation 500 cGy single dose", "value": "significantly reduce tumor growth"}, {"measurement": "effect on tumor growth, 1MT alone", "setting": "[1]", "value": "no effect"}]}, {"molecule": "Cn1cc(C[C@@H](N)C(=O)O)c2ccccc21", "note": "[1-methyl-D-tryptophan]", "values": [{"measurement": "apparent volume of distribution", "setting": "[2]; D versus L isomer", "value": "relatively greater"}, {"measurement": "bioavailability", "setting": "[2]; mouse, plasma, po, 50 mg/kg", "value": 64, "unit": "%"}, {"measurement": "accumulation in liver, D versus L isomer", "setting": "[3]", "value": "at least equal, and possibly preferential, accumulation"}, {"measurement": "distribution into muscle and spleen, D versus L isomer", "setting": "[3]", "value": "equivalent distribution"}, {"measurement": "levels in plasma and in brain, D versus L isomer", "setting": "[3]", "value": "lower levels"}, {"measurement": "anti-tumor effect of combination with radiation", "setting": "[1]; replicate radiation studies", "value": "enhanced effect over radiation alone"}]}, {"molecule": "Cn1cc(C[C@H](N)C(=O)O)c2ccccc21", "note": "[1MT, 1-methyl-tryptophan]", "values": [{"measurement": "suppression in recall MLRs", "setting": "[4]", "value": "no effect; also recorded: not restored"}, {"measurement": "IDO-mediated prevention of tumor rejection by pre-immunized hosts", "setting": "[5]", "value": "substantially reversed"}, {"measurement": "effect of 1MT over cyclophosphamide alone in immunodeficient hosts", "setting": "[1]; RAG1-knockout hosts", "value": "no enhancing effect"}, {"measurement": "effect on tumor growth, 1MT alone", "setting": "[1]", "value": "no effect"}, {"measurement": "tumor outgrowth", "setting": "[6]", "value": "significantly delayed tumor outgrowth"}]}, {"molecule": "Cn1cc(C[C@H](N)C(=O)O)c2ccccc21", "note": "[L 1-MT, reference compound]", "values": [{"measurement": "oral bioavailability", "setting": "[2]; PO", "value": 105, "unit": "%"}]}, {"molecule": "N[C@@H](Cc1c[nH]c2ccccc12)C(=O)O", "note": "[L-tryptophan]", "values": [{"measurement": "suppression by pDCs with excess L-tryptophan", "setting": "[7]; 250 uM, IDO-sufficient host", "value": "abrogated; also recorded: abrogates suppression"}, {"measurement": "effect of excess L-tryptophan with IDO-knockout pDCs", "setting": "[7]; TDLN cells from IDO-knockout mice", "value": "no effect"}, {"measurement": "DC-mediated inhibition of T cell proliferation with supra-physiologic tryptophan", "setting": "[8]", "value": "completely reversed"}]}, {"molecule": "LIESGQLRERVEKLNMLC (also: conjugated to keyhole limpet carrier protein for immunisation)", "note": "[immunizing peptide … (SEQ ID NO:1), based on human IDO]", "values": [{"measurement": "reduction of flow cytometry signal", "setting": "[9]", "value": "> 95", "unit": "%"}]}]}
